From patent US10766890B2, “Hepatitis B core protein modulators” (Assembly Biosciences, Inc., priority 2015, dated 2020)

Key:
AD38 cells = test: Viability of AD38 cells, Promega CellTiter-Glo; assay type: cell-based; settings: 10 μM compound, 6 days, CellTiter-Glo luminescence, controls being 100%
Procedure: (§1) Example 63: Assay Measuring Activity of Compounds on Viral Production in and on Viability of AD38 Cells
(§2) AD38 cells were then re-suspended with 10 mL of Treatment Medium and counted. Wells of a collagen coated 96-well NUNC microtiter plate were seeded at 50,000/well in 180 μL of Treatment Medium, and 20 μL of in treatment media with either 10% DMSO (Control) or a 10× solution of compound in 10% DMSO was added. Plates were incubated for 6 days at 37° C.
At the end of compound treatment period cell viability was assessed using a Promega CellTiter-Glo protocol. All supernatant was removed the previously treated 96-well microtiter plate, and 50 μL Tetracycline-free treatment medium (DMEM/F12 (1:1), 1×Pen/step (cat#: 30-002-CL, Mediatech, Inc), with 2% FBS, Tet-system approved (cat#: 631106, Clontech), and 1% DMSO was added back to each well. Another 50 μL of CellTiter-Glo reagent solution (Promega, G7573) was then added at room temperature and the contents mixed for 2 minutes on an orbital shaker to induce cell lysis. This was followed by incubation at room temperature for 10 minutes to stabilize the luminescent signal. The luminescence was recorded for 0.2 seconds per well on a Tecan multimode platereader (Infinite M1000 pro). The luminescent signal from each well was normalized against that of untreated (DMSO) control wells. All results in Table 3 were reported with percent viability (with controls being 100%).

HBV = test: Viral load production in AD38 cells, quantitative PCR of the core sequence in supernatant; assay type: cell-based; settings: Hepatitis B virus, 144 h, 10 μM compound, 6 days at 37° C., supernatant qPCR vs DMSO control, read-out: AD38 Viral Load (%) (VL with cmpd/VL in DMSO control) at 10 μM
Procedure: as §1, §2
Viral load production was assayed by quantitative PCR of the core sequence. […] The PCR mixture was incubated at 45° C. for 5 minutes, then 95° C. for 10 min, followed by 40 cycles of 10 seconds at 95° C. and 20 seconds at 60° C. Viral load was quantitated against known standards by using ViiA™ 7 Software. Viral load in the supernatant from wells with treated cells were compared against viral load in supernatant from DMSO control wells (≥3 per plate).

SMILES	AD38 Viability Normalized Result (cmpd/DMSO %) at 10 μM (AD38 cells) [%]	activity at 10 µM (HBV) [%]
COc1cccc(Sc2cccc(CNC(=O)c3ccc4c(c3)NC(=O)c3ccccc3S4(=O)=O)c2)c1 [Compound 812-A, N-(3-((3-methoxyphenyl)thio)benzyl)-11-oxo-10,11-dihydrodibenzo[b,f][1,4]thiazepine-8-carboxamide 5,5-dioxide]	66	1.4
COc1ccc(Sc2cccc(CNC(=O)c3ccc4c(c3)NC(=O)c3ccccc3S4(=O)=O)c2)cc1 [Compound 813, N-(3-((4-methoxyphenyl)thio)benzyl)-11-oxo-10,11-dihydrodibenzo[b,f][1,4]thiazepine-8-carboxamide 5,5-dioxide]	44	1.2
